Measurements reported in US20040230257A1, “Enhanced bioavailability of nutrients, pharmaceutical agents, and other bioactive substances through laser resonant homogenization or modification of molecular shape or crystalline form” (priority 2003, published 2004).
Where a name gives a salt, the structure may show the parent alone.

Legend:
murine macrophages = experiment: Nitrite (nitric oxide) production by LPS-stimulated murine macrophages given arginine samples; assay type: cell-based; conditions: arginine 120 mcg/ml, LPS 1 ng/ml, 24 hours; for Mean O.D. ± S.D. (optical density at 540 nm, a measure of nitrite concentration): 12 wells
Procedure: Paracelsian in Ithaca, N.Y., an outside independent lab, performed the following bioassays. Each arginine sample was added to 12 wells of murine macrophages to achieve a concentration of 120 mcg/ml. This is the estimated serum concentration for a 70 Kg person after ingesting a 6-gram serving of arginine, a level observed in numerous clinical studies to be associated with a wide range of physiologic benefits. LPS at 1 ng/ml was added to each well and the cells were incubated for 24 hours. The nitrite concentration in each well's supernatant was determined 24 hours after initiation of treatment as a relative measure of nitric oxide production.
The results are listed in order of relative nitrite production, from greatest to least. The first column is the Arg #, the second the mean plus or minus the standard deviation of the optical density measurement at 540 nm, a measure of nitrite concentration, and the third column the relative production of nitrites expressed in micrograms per ml as determined from optical density.

[1] = Case report: lupus patient on the laser treated methylation formula; assay type: in vivo, human; conditions: before entry, only treatment
Description: The exemplary patient had suffered with relapsing lupus for several years. At the time of entry into the methylation formula studies of EXAMPLE 6, they had experienced a relapse of severe disease for several months.
Their disease was characterized by exquisitely tender blistering and ulcerating lesions on their hands and feet that made it difficult to walk or open a cabinet door without severe pain. Their skin was pallid, they were extremely fatigued with a chronic low energy state, and had suffered extensive hair loss. Their sedimentation rate, a marker for systemic inflammation, was highly elevated at 99, whereas a normal level would be 0-30. […] They declined the use of corticosteroids due to severe treatment side effects during a prior relapse.
The subject was randomized to the placebo control group and for 3 months had no improvement in condition. In the second phase of the study, they were placed on a high dose of the methylation formula of 6 grams of laser treated betaine plus cofactors daily. […]
The subject continued on a lower dose of the laser treated methylation formula for 5 more months, reduced to 1-2 grams of the laser treated betaine plus cofactors. […] At the end of fifth month of lower dose treatment, their sedimentation rate had dropped to the very low normal value of 1, the lowest level ever recorded for them.

[2] = Pilot test: blood SAMe level and knee pain in a subject with osteoarthritis; assay type: in vivo, human
Description: As a pilot test, a subject with osteoarthritis had blood SAMe levels measured while taking SAMe and then while taking a betaine formulation. […] On this level of SAMe ingestion for three months, their blood SAMe level was 4.9 (the normal range for this lab is 4.2-8.2). At this time, SAMe was discontinued and they started a methylation formula with one gram of laser treated betaine plus laser treated metabolic cofactors. The betaine and metabolic co-factors were in the same ratios as in the double blind clinical study formula to be described below.
In particular, the dual effect of raising SAMe while reducing homocysteine would be expected to preserve and improve the condition of DNA methylation, as SAMe is the exclusive methyl group donor for DNA methylation.

[3] = cited from earlier work
[4] = betaine 9 grams daily plus vitamin B12, a liver extract and a creatine precursor; placebo 25%; cited from earlier work
[5] = animal studies; cited from earlier work
[6] = X-ray crystallography of control vs laser treated L-arginine hydrochloride; assay type: physicochemical; conditions: crystallized from deionized water by slow evaporation at room temperature
Procedure: Each sample was dissolved in 0.50 grams of deionized water. The control sample was crystallized by slow evaporation at room temperature over 24 hours. The average room temperature was approximately 26 degrees Centigrade. The average ambient humidity was approximately 33%.
The treated sample was crystallized under the same conditions with the addition of pulsed modulated energy at 532 nm as described for Arg #1 in Example 2 above. The beam was passed through the center of the meniscus of solution in the container.
Crystals from the control and treated samples were selected for further study. Selected crystals all had dimensions of approximately 0.5 mm on a side or less as per the latest standards in the art. The crystal structures were solved using a SMART X-ray diffraction analytical device.

[7] = X-ray crystallography of control vs laser treated betaine hydrochloride; assay type: physicochemical; conditions: crystals from deionized water
Procedure: The control and treated betaine hydrochloride samples shown in FIGS. 5A, 5B, 5C, 5D, and 5E were prepared by dissolving 0.6 grams of betaine hydrochloride in 3.0 grams of deionized water and placing the solutions thus prepared in 10×35 mm Petri dishes. Crystallization was done in open containers by slow evaporation at room temperature, a procedure often used in the art of crystallography. Ambient humidity was maintained at or below 30 percent with laboratory dehumidifiers. The treated betaine hydrochloride was irradiated with a 670 nm continuous wave diode laser modulated at 10 MHz with a primary beam power of 2.7 milliwatts that was phase conjugated to 1.35 milliwatts. The 5 mm diameter beam was passed through the middle of fluid meniscus of the treated solution during the entire crystallization process. The control untreated betaine hydrochloride was prepared under the same conditions, except that it was not irradiated with the sparse constructive node generating laser system.
X-ray crystallography was performed using a SMART device made by Siemens. FIGS. 5C and 5D show the intermolecular hydrogen bonding of control versus laser treated betaine hydrochloride, respectively. […]

N=C(N)NCCC[C@H](N)C(=O)O [Arg #1, L-arginine]
nitric oxide byproducts produced compared with control untreated Arg #4 (murine macrophages): statistically significantly less | Mean O.D. ± S.D. (optical density at 540 nm, a measure of nitrite concentration) (murine macrophages): .215 ± .007

N=C(N)NCCC[C@H](N)C(=O)O [Arg #2, L-arginine]
nitric oxide byproducts produced compared with control untreated Arg #4 (murine macrophages): statistically significantly less | Mean O.D. ± S.D. (optical density at 540 nm, a measure of nitrite concentration) (murine macrophages): .219 ± .008

N=C(N)NCCC[C@H](N)C(=O)O [Arg #3, L-arginine]
nitric oxide byproducts produced compared with control untreated Arg #4 (murine macrophages): statistically significantly more | Mean O.D. ± S.D. (optical density at 540 nm, a measure of nitrite concentration) (murine macrophages): .232 ± .010

N=C(N)NCCC[C@H](N)C(=O)O [Arg #4, L-arginine]
Mean O.D. ± S.D. (optical density at 540 nm, a measure of nitrite concentration) (murine macrophages): .224 ± .006

CCN(CCO)CCCC(C)Nc1ccnc2cc(Cl)ccc12 (stereo not drawn) [Plaquenil]
relief of lupus symptoms [1]: did little to relieve their symptoms

C[S+](CC[C@H](N)C(=O)[O-])C[C@H]1O[C@@H](n2cnc3c(N)ncnc32)[C@H](O)[C@@H]1O (stereo partly drawn) [SAMe, S-adenosyl-methionine]
blood SAMe level ([2]; 800 mg of SAMe daily for three months, normal range 4.2-8.2): 4.9 | knee pain ([2]; SAMe 800 mg daily, formula with one gram laser treated betaine for one month): moderate degree of relief | anti-depressant effects ([3]; 1600 mg per day): comparable to tricyclic anti-depressant drugs | time to anti-depressant effects ([3]; tricyclic medications 4-6 weeks): within one week

C[N+](C)(C)CC(=O)O [betaine, N,N,N-trimethylglycine]
mortality after one year [4]: no mortality | liver SAMe levels [5]: up to fourfold

Cl.N=C(N)NCCC[C@H](N)C(=O)O [control L-arginine hydrochloride, L-arginine hydrochloride]
crystal form / water in the crystal lattice [6]: monohydrated crystal

Cl.N=C(N)NCCC[C@H](N)C(=O)O [laser treated L-arginine hydrochloride, L-arginine hydrochloride]
crystal form / water in the crystal lattice [6]: free of water in the crystal lattice

C[N+](C)(C)CC(=O)O [treated betaine hydrochloride, betaine hydrochloride]
intermolecular hydrogen bonds per molecule [7]: 3

C[N+](C)(C)CC(=O)O [untreated betaine hydrochloride, betaine hydrochloride]
intermolecular hydrogen bonds per molecule [7]: 4
